Measured values taken from publication PMC11845477, “Exploring the principles behind antibiotics with limited resistance” (Nature Communications, 2025).
Where a SMILES comes first, the peptide text is derived from it. Bridges are numbered along the chain shown (N, C = ends). [ ]: non-standard residue; d: D form. The star is where a group is joined. X2 = CC[C@H](C)CCCCC(=O)*; Dab = NCC[C@H](N)C(=O)O

Tests used:
[1] = test system: E. coli ATCC 25922 (SEN) and E. coli NCTC13846 (MDR); assay: microbe, parasite or virus in culture; type: cell-based, Escherichia coli; settings: for MIC: across three biological replicates
Method: This study focused on multiple bacterial strains, as follows. For the FoR and ALE experiments, 2 strains per species were chosen: E. coli ATCC 25922, K. pneumoniae ATCC 10031, A. baumannii ATCC 17978, and P. aeruginosa ATCC BAA-3107 as sensitive (SEN) strains, and E. coli NCTC13846, K. pneumoniae ATCC 700603, A. baumannii ATCC BAA-1605 and P. aeruginosa LESB58 as multi-drug resistant (MDR) strains. Functional metagenomic screens were performed with E. coli ATCC 25922 and K. pneumoniae ATCC 10031 strains. To determine the dose-kill properties of the different antibiotics, an E. coli strain (ATCC 25922) expressing a yellow fluorescent protein (pZS2R, YFP, CHL^R) and a red fluorescent protein (pZS2R, mCherry, CHL^R) was used.
Unless otherwise indicated, cation-adjusted Mueller-Hinton Broth 2 (MHB, Millipore) medium was used throughout the study, except for SCH79797 (SCH).
(§1) A robotic liquid handling system was used to automatically prepare a 11 to 16-step serial dilution in 384-well microtiter plates (Greiner). A final concentration of 5 × 10^5 bacterial cells per mL were inoculated into each well containing 60 µL MHB medium. Bacterial cultures were incubated at 37 °C with continuous shaking (Infors shaker, 900 rpm with 3 mm throw) for 18 hours (2 replicates from each). Cell growth was monitored by measuring the optical density (OD600 values, using Biotek Synergy microplate reader). MIC was defined as the antibiotic concentration of complete growth inhibition (i.e., OD600 < 0.05). Relative MIC was calculated as follows:1 relativeMIC=MICevolved/MICancestor

[2] = test system: P. aeruginosa ATCC BAA-3107 (SEN) and P. aeruginosa LESB58 (MDR); assay: Frequency-of-resistance (FoR) assay, relative MIC of mutants; type: cell-based, Pseudomonas aeruginosa
Method: The susceptibility of antibiotics to resistance development was evaluated in two strains of each bacterial species: a multidrug-resistant strain and an antibiotic-sensitive strain of Escherichia coli, Klebsiella pneumoniae, Acinetobacter baumannii, and Pseudomonas aeruginosa. To explore first-step resistance, we previously used a standard protocol for spontaneous frequency-of-resistance analysis (FoR assay) at multiple concentrations of each antibiotic[10],[28],[31]–[33]. […] For all other combinations, approximately 10^10 bacterial cells were exposed to one of each antibiotic on agar plates for two days at concentrations where the given strain is susceptible. We examined resistance levels by contrasting the minimum inhibitory concentration (MICs) of the mutated strains to the original wild-type bacterial strain (i.e., relative MIC).
To estimate the frequency of spontaneous mutations that confer resistance in a microbial population, we conducted a frequency of resistance (FoR) assay following established protocols[10],[31]–[33]. […] Prior to plating, bacteria were grown overnight in MHB medium at 37 °C and 250 RPM, then centrifuged and washed in MHB. All experiments were performed in triplicate, and plates were incubated at 37 °C for 48 hours. Total colony-forming units (CFUs) were determined by plating appropriate dilutions onto antibiotic-free MHB agar. Resistance frequencies were calculated by dividing the number of resistant colonies by the initial viable cell count. From the plates with the highest antibiotic concentration, ten colonies were selected for MIC determination and whole-genome sequencing.
as §1, with “relativeMIC=MICevolved/MICancestor […]” for “relativeMIC=MICevolved/MICancestor”
Supplementary Figure 3. Resistance levels following the frequency of resistance assay across bacterial strains. The level of resistance was measured as the fold change in relative MIC between evolved and ancestral strains. Data are grouped by bacterial strain (A. baumannii (AB), E. coli (EC), K. pneumoniae (KP), and P. aeruginosa (PA)) and categorized as either multidrug-resistant (MDR) or sensitive (SEN). Each data point represents a laboratory evolved line, and boxplots show the median, first and third quartiles, with whiskers indicating the 5th and 95th percentiles. […]
analysis was performed using two-sided Dunn’s post-hoc test with Benjamini-Hochberg correction for multiple comparisons (**/ * indicates p < 0.01/ 0.05). For detailed information on antibiotic and bacterial species, see Supplementary Table 1. For mode of action groups, refer to Table 1. Source data are provided as a Source Data file.

[3] = Escherichia coli, Escherichia coli ATCC 25922 (EC-SEN)
[4] = Escherichia coli, Escherichia coli NCTC 13846 (EC-MDR)
[5] = P. aeruginosa ATCC BAA 3107 (PA-SEN), evolved line 1
[6] = P. aeruginosa ATCC BAA 3107 (PA-SEN), evolved line 2
[7] = P. aeruginosa ATCC BAA 3107 (PA-SEN), evolved line 3
[8] = P. aeruginosa LESB 58 (PA-MDR), evolved line 1
[9] = P. aeruginosa LESB 58 (PA-MDR), evolved line 1, evolved vs ancestor
[10] = P. aeruginosa LESB 58 (PA-MDR), evolved line 2
[11] = P. aeruginosa LESB 58 (PA-MDR), evolved line 2, evolved vs ancestor
[12] = P. aeruginosa LESB 58 (PA-MDR), evolved line 3
[13] = P. aeruginosa LESB 58 (PA-MDR), evolved line 3, evolved vs ancestor
[14] = Escherichia coli ATCC 25922 (EC-SEN), ancestor strain
[15] = Escherichia coli ATCC 25922 (EC-SEN), ancestor strain, sheet fig 2a
[16] = P. aeruginosa ATCC BAA 3107 (PA-SEN), evolved line 1, evolved vs ancestor
[17] = P. aeruginosa ATCC BAA 3107 (PA-SEN), evolved line 2, evolved vs ancestor
[18] = P. aeruginosa ATCC BAA 3107 (PA-SEN), evolved line 3, evolved vs ancestor
[19] = E. coli NCTC 13846 (EC-MDR), ancestor strain, sheet fig 2a
[20] = EC-SEN, Escherichia coli ATCC 25922, ancestor strain
[21] = EC-MDR, Escherichia coli NCTC 13846, ancestor strain
[22] = Escherichia coli ATCC 25922 (EC-SEN), ancestor
[23] = Escherichia coli ATCC 25922 (EC-SEN)
[24] = Escherichia coli NCTC 13846 (EC-MDR)
[25] = ancestor EC-SEN (Escherichia coli ATCC 25922)

| Compound | MIC [1, 3] [µg/mL] | MIC [1, 4] [µg/mL] | MIC of evolved line [2, 5] [µg/mL] | MIC of evolved line [2, 6] [µg/mL] | MIC of evolved line [2, 7] [µg/mL] | MIC of ancestor [1, 15] [µg/mL] | MIC of ancestor [1, 19] [µg/mL] | MIC [1, 23] [µg/mL] | MIC [1, 24] [µg/mL] | also measured |
| --- | --- | --- | --- | --- | --- | --- | --- | --- | --- | --- |
| CN[C@@H]1[C@@H](O[C@H]2O[C@H](CO)[C@@H](N)[C@H](O)[C@H]2O)OC2C[C@@H](N)[C@@H](O[C@H]3[C@H](O)[C@@H](O)[C@H](N)C[C@@H]3N)OC2[C@@H]1O (stereo partly drawn) [Apramycin] | 16 | 8 |  |  |  |  |  |  |  |  |
| Nc1nc(-n2cc(C(=O)O)c(=O)c3cc(F)c(N4CC(O)C4)c(Cl)c32)c(F)cc1F [Delafloxacin] | 0.0312 | 16 | 2 | 2 | 2 | 0.0312 |  |  |  | MIC of evolved line [2, 8]: 8 µg/mL; Relative MIC [2, 9]: 4; MIC of evolved line [2, 10]: 8 µg/mL; Relative MIC [2, 11]: 4; MIC of evolved line [2, 12]: 4 µg/mL; Relative MIC [2, 13]: 2; MIC of ancestor [1, 14]: 0.0312 µg/mL |
| C[C@H]1c2cccc(O)c2C(=O)C2=C(O)[C@]3(O)C(=O)C(C(N)=O)=C(O)[C@@H](N(C)C)[C@@H]3[C@@H](O)[C@@H]21 [Doxycycline] | 1 | 16 |  |  |  | 1 |  |  |  | Relative MIC [2, 16]: 32; Relative MIC [2, 17]: 32; Relative MIC [2, 18]: 32; MIC of ancestor [1, 14]: 1 µg/mL |
| CN(C)[C@@H]1C(O)=C(C(N)=O)C(=O)[C@@]2(O)C(O)=C3C(=O)c4c(O)c(NC(=O)CN5CCCC5)cc(F)c4C[C@H]3C[C@@H]12 [Eravacycline] | 0.125 | 1 | 32 | 32 | 32 | 0.125 | 1 |  |  | Relative MIC [2, 16]: 8; Relative MIC [2, 17]: 8; Relative MIC [2, 18]: 8; MIC of ancestor [1, 20]: 0.125 µg/mL; MIC of ancestor ([1]; Escherichia coli NCTC 13846 (EC-MDR), ancestor strain): 1 µg/mL |
| CNC(C)C1CCC(N)C(OC2C(N)CC(N)C(OC3OCC(C)(O)C(NC)C3O)C2O)O1 (stereo not drawn) [Gentamicin] | 1 | 1 | 8 | 8 | 8 | 1 | 1 |  |  | Relative MIC [2, 16]: 8; Relative MIC [2, 17]: 8; Relative MIC [2, 18]: 8; MIC of ancestor [1, 21]: 1 µg/mL; MIC of ancestor [1, 20]: 1 µg/mL |
| O=c1ccc2ncc(=O)n3c2n1C[C@H]3CN1CCC(NCc2cc3c(cn2)OCCC3)CC1 [Gepotidacin] | 1 | 2 | 64 | 64 | 64 | 1 | 2 |  |  | Relative MIC [2, 16]: 16; Relative MIC [2, 17]: 16; Relative MIC [2, 18]: 16; MIC of evolved line [2, 8]: 32 µg/mL; Relative MIC [2, 9]: 8; MIC of evolved line [2, 10]: 32 µg/mL; Relative MIC [2, 11]: 8; MIC of evolved line [2, 12]: 16 µg/mL; Relative MIC [2, 13]: 4; MIC of ancestor [1, 21]: 2 µg/mL; MIC of ancestor [1, 20]: 1 µg/mL |
| C[C@@H](O)[C@H]1C(=O)N2C(C(=O)O)=C(S[C@@H]3CN[C@H](C(=O)N(C)C)C3)[C@H](C)[C@H]12 [Meropenem] | 0.0312 | < 0.0312 | 2 | 2 | 2 | 0.0312 | 0.0156 |  |  | MIC of evolved line [2, 8]: 32 µg/mL; MIC of evolved line [2, 10]: 32 µg/mL; MIC of evolved line [2, 12]: 32 µg/mL; MIC of ancestor [1, 21]: 0.0156 µg/mL; MIC of ancestor [1, 20]: 0.0312 µg/mL |
| COc1c(N2C[C@@H]3CCCN[C@@H]3C2)c(F)cc2c(=O)c(C(=O)O)cn(C3CC3)c12 [Moxifloxacin] | 0.0312 | > 32 | 16 | 32 | 32 | 0.0312 |  |  |  | MIC of ancestor [1, 22]: 0.0312 µg/mL |
| CN(C)c1cc(CNCC(C)(C)C)c(O)c2c1C[C@H]1C[C@H]3[C@H](N(C)C)C(O)=C(C(N)=O)C(=O)[C@@]3(O)C(O)=C1C2=O [Omadacycline] | 2 | 16 |  |  |  | 2 |  |  |  | MIC of ancestor [1, 22]: 2 µg/mL |
| CC[C@H](C)CCCCC(=O)N[C@@H](CCN)C(=O)N[C@H](C(=O)N[C@@H](CCN)C(=O)N[C@H]1CCNC(=O)[C@H]([C@@H](C)O)NC(=O)[C@H](CCN)NC(=O)[C@H](CCN)NC(=O)[C@H](CC(C)C)NC(=O)[C@@H](Cc2ccccc2)NC(=O)[C@H](CCN)NC1=O)[C@@H](C)O [Polymyxin B] (X2-[Dab]T[Dab][Dab][Dab][dF]L[Dab][Dab]T; lactam 4-C (inferred); N-terminus assumed) |  |  |  |  |  |  |  | 1 | 4 |  |
| CC(C)c1ccc(Cn2ccc3c4c(N)nc(NC5CC5)nc4ccc32)cc1 [SCH79797] |  |  |  |  |  |  |  | 4 | 16 | MIC of ancestor ([1]; E. coli ATCC 25922 (EC-SEN), ancestor strain, sheet fig 2a): 4 µg/mL; MIC of ancestor [1, 25]: 4 µg/mL |
| C[C@@H](O)[C@H]1C(=O)N2C(C(=O)O)=C(S[C@H]3CC[S@@+]([O-])C3)S[C@H]12 [Sulopenem] |  |  |  |  |  |  | 0.0312 | 0.0625 | 0.03125 | MIC of ancestor ([1]; ancestor EC-MDR (Escherichia coli NCTC 13846)): 0.0312 µg/mL; MIC of ancestor [1, 25]: 0.0312 µg/mL |
| C[C@@H]1CN2c3c(cc4c(N5C(=O)OC[C@@H]5C)noc4c3F)CC3(C(=O)NC(=O)NC3=O)[C@H]2[C@H](C)O1 [Zoliflodacin] | 2 | 16 |  |  |  | 2 |  |  |  | MIC of ancestor [1, 25]: 2 µg/mL |
| POL7306 |  |  |  |  |  |  |  | 1 | 4 |  |
| Tridecaptin M152-P3 |  |  |  |  |  | 4 |  | 4 | 8 | MIC of ancestor [1, 25]: 4 µg/mL |
